In PMC9858543, “Design, synthesis and evaluation of 2, 6, 8-substituted Imidazopyridine derivatives as potent PI3Kα inhibitors” (Journal of Enzyme Inhibition and Medicinal Chemistry, 2023):
Read-outs that look alike come from different tables or passages of the source.

Legend:
SKOV-3 = experiment: Cell proliferation assay (CellTiter-Glo), SKOV-3; format: cell-based; settings: Homo sapiens, SK-OV-3; 72 h exposure; mean ± SD of two experiments
Method: (§1) Given the desirable enzyme activity profile, these compounds were further assayed for their antiproliferative activities against five independent human tumour cell line collections harbouring PIK3CA mutation, including human ovarian cancer cell line SKOV-3, human breast cancer T47D and MCF-7, human lung cancer H1975 and H460. […] In general, the cellular activity of tested derivatives corrected with their effects on kinase activity.
(§2) All target compounds were evaluated for antiproliferative potency against SKOV-3, T47D,NCI-H1975, NCI-H460,and MCF-7 tumour cell lines using a CellTiter-Glo® Luminescent Cell Viability Assay. The human tumour cell lines used were obtained from the ATCC or Shanghai ZhongQiaoXinZhou Biotech. All the mediums and FBS were Gibco. T47D, H1975 and NCI-H460 tumour cells were cultured in RPMI1640 medium supplemented with 10% FBS. SKOV-3 was cultured in McCoy’s 5 A medium supplemented with 10%FBS. The day before treatment with compounds, cells were seeded at a density of 2000 or 5000 in each well of a 96-well plate. The tumour cells were then treated with 3-fold serial diluted compound or DMSO control in the incubator at 37 °C and 5% CO2 for 3 days, prior to the addition of CellTiter-Glo reagents (Promega) and reading of luminescence using a PerkinElmer Envision plate reader. Data were analysed using GraphPad Prism 7.0.

NCI-H1975 = experiment: Cell proliferation assay (CellTiter-Glo), NCI-H1975; format: cell-based; settings: Homo sapiens, 72 h exposure, mean ± SD of two experiments
Method: as §1, §2

NCI-H460 = experiment: Cell proliferation assay (CellTiter-Glo), NCI-H460; format: cell-based; settings: Homo sapiens, 72 h exposure, mean ± SD of two experiments
Method: as §1, §2

MCF-7 = experiment: Cell proliferation assay (CellTiter-Glo), MCF-7; format: cell-based; settings: Homo sapiens, MCF7; 72 h exposure; mean ± SD of two experiments
Method: as §1, §2

T47D = experiment: Cell proliferation assay (CellTiter-Glo), T47D; format: cell-based; settings: Homo sapiens, 72 h exposure, mean ± SD of two experiments
Method: as §1, §2

PI3Kα = molecular target: T1, PI3Kα (Homo sapiens, UniProt P42336); experiment: In vitro PI3Kα enzymatic assay (ADP-Glo / Kinase-Glo, ATP 25 μM); format: biochemical; settings: for inhibition at 10 µM / % Inhibition at 10 μM: mean ± SD of three determinations; for IC50: mean ± SD of two experiments
T1 construct: purchased Invitrogen
T1 sequence (P42336 whole entry): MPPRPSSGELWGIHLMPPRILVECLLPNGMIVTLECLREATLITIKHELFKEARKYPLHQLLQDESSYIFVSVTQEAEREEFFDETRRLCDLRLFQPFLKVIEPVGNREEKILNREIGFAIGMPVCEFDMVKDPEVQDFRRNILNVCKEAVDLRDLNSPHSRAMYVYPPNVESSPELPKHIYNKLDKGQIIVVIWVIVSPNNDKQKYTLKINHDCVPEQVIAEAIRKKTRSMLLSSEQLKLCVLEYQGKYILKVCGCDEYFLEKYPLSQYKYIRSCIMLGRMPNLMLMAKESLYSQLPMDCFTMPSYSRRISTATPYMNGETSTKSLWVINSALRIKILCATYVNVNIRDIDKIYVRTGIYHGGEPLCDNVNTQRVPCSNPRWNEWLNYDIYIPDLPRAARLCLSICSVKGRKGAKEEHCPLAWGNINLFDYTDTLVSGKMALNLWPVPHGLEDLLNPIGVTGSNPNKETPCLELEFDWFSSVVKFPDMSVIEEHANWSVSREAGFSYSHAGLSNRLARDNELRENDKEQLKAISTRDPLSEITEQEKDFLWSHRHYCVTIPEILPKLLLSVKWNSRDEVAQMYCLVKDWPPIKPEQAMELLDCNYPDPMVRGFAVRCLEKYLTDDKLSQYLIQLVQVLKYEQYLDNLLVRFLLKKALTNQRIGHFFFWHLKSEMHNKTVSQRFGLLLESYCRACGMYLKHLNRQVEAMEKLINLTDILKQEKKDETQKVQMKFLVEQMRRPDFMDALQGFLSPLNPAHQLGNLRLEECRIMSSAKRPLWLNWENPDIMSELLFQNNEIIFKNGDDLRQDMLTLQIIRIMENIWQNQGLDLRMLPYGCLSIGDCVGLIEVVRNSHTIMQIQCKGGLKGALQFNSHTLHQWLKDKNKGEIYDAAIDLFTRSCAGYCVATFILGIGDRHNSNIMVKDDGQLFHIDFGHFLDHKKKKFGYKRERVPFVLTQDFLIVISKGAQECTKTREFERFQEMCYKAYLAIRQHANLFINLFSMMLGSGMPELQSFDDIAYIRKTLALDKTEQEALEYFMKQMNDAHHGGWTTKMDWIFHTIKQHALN
T1 sequence (P27986 whole entry partner): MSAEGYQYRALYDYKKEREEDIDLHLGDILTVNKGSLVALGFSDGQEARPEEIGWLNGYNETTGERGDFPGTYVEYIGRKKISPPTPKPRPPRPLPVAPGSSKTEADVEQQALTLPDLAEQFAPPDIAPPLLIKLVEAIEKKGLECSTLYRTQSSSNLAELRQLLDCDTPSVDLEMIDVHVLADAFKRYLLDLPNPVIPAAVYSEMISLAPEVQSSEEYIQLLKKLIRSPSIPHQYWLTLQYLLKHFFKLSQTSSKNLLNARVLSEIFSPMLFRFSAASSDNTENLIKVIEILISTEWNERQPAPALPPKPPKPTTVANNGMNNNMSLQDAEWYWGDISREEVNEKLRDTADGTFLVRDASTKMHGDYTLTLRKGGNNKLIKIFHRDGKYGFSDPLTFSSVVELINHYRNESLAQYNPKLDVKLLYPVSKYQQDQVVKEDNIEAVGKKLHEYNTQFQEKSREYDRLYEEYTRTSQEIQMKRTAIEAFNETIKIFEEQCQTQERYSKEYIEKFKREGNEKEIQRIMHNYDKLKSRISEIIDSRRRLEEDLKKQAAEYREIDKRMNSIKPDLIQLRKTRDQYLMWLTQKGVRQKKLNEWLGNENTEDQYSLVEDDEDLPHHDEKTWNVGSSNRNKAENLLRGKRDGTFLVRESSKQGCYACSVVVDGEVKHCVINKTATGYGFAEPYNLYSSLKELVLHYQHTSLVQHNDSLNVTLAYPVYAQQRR
Method: To screen the inhibitory activity of the target compounds against PI3Kα, the Kinase-Glo™ assay with ATP at 25 μM was utilised with PIK-75 as positive control. We chose to explore the SARs at three positions on the Imidazo[1,2-a]pyridine core. To start with, a set of 8-position modifications were prepared while keeping the morpholinyl amide substituent on 2-position fixed, since it allowed quick structure − activity profiling via coupling reactions of bromide with aryl borates or boronic acids. […] We then turned our attention back to the phenyl substituents.
Briefly, the compound, PI3K enzyme (PI3Kα from Invitrogen), the PIP2 (Life Technologies) substrate, and ATP (25 μM, Sigma) were diluted in kinase buffer to the indicated concentrations. The assay plate was covered and incubated at room temperature for 1 h. Then, the Kinase-Glo reagent (Promega) was added to the PI3Kα plate to stop the reaction, mixed briefly with centrifuge, shaken slowly on the shaker and then equilibrate for 120 min. Finally, add Kinase detection reagent to each well, shake 1 min, equilibrate for 30 min before reading on a plate reader for luminescence. The data were collected on Envision and presented in Excel. IC50 values were calculated from the inhibition curves.

[1] = PI3Kα, compound 10 μM, ATP 25 μM, read-out: % Inhibition at 10 μM
[2] = PI3Kα, compound 10 μM, ATP 25 μM

For `Cc1nc(NC(=O)N2CCC[C@H]2C(N)=O)sc1-c1ccnc(C(C)(C)C(F)(F)F)c1` [Alpelisib, reference compound], the IC50 (SKOV-3) was 9.7 ± 0.7 µM, the IC50 (NCI-H1975) was 2.7 ± 0.2 µM and the IC50 (NCI-H460) was 8.9 ± 0.7 µM. For the same compound, the IC50 (MCF-7) was 2.2 ± 0.3 µM and the IC50 (T47D) was 0.46 ± 0.05 µM.

`COc1ncc(-c2cc(C)cn3cc(C(=O)N4CCCC4)nc23)cc1NS(=O)(=O)c1ccccc1` [Compound 34, N-(2-methoxy-5–(6-methyl-2-(pyrrolidine-1-carbonyl)Imidazo[1,2-a]pyridin-8-yl)pyridin-3-yl)benzenesulfonamide] was tested, and the inhibition at 10 µM (PI3Kα; [1]) was 49.8 ± 1.6%.

With `COc1ncc(-c2cc(C)cn3cc(C(=O)N4CCCC4)nc23)cc1NS(=O)(=O)c1ccc(F)cc1F` [Compound 36, 2,4-Difluoro-N-(2-methoxy-5–(6-methyl-2-(pyrrolidine-1-carbonyl)Imidazo[1,2-a]pyridin-8-yl)pyridin-3-yl)benzenesulfonamide] the IC50 (SKOV-3) was 35.3 ± 4.2 µM, the IC50 (NCI-H1975) was over 50 µM and the IC50 (NCI-H460) was 30.2 ± 3.1 µM. The IC50 (PI3Kα; ATP 25 μM) was 1.12 ± 0.15 µM, the inhibition at 10 µM (PI3Kα; [1]) was over 85% and the IC50 (MCF-7) was 8.1 ± 0.8 µM. The IC50 (T47D) was 15.9 ± 1.5 µM.

Work on `COc1ncc(-c2cc(C)cn3cc(C(=O)N4CCOCC4)nc23)cc1NS(=O)(=O)c1ccc(F)cc1F` [Compound 37, 2,4-Difluoro-N-(2-methoxy-5–(6-methyl-2-(morpholine-4-carbonyl)Imidazo[1,2-a]pyridin-8-yl)pyridin-3-yl)benzenesulfonamide] yielded an inhibition at 10 µM (PI3Kα; [1]) of 67.5 ± 0.3%.

In the case of `COc1ncc(-c2cc(C)cn3cc(C(=O)NCCN4CCOCC4)nc23)cc1NS(=O)(=O)c1ccc(F)cc1F` [Compound 38, 8–(5-((2,4-Difluorophenyl)sulfonamido)-6-methoxypyridin-3-yl)-6-methyl-N-(2-morpholinoethyl)Imidazo[1,2-a]pyridine-2-carboxamide], the inhibition at 10 µM (PI3Kα; [1]) is reported as 81.6 ± 2.8%.

`COc1ncc(-c2cc(C)cn3cc(C(=O)NCCCN4CCOCC4)nc23)cc1NS(=O)(=O)c1ccc(F)cc1F` [Compound 39, 8–(5-((2,4-Difluorophenyl)sulfonamido)-6-methoxypyridin-3-yl)-6-methyl-N-(3-morpholinopropyl)Imidazo[1,2-a]pyridine-2-carboxamide] was tested, and the inhibition at 10 µM (PI3Kα; [1]) was 70.2 ± 3.6%.

`COc1ncc(-c2cc(C)cn3cc(C(=O)NCCN4CCOCC4)nc23)cc1NS(=O)(=O)c1ccc(F)cc1` [Compound 40, 8–(5-((4-Fluorophenyl)sulfonamido)-6-methoxypyridin-3-yl)-6-methyl-N-(2-morpholinoethyl)Imidazo[1,2-a]pyridine-2-carboxamide] gave an IC50 (SKOV-3) of 25.5 ± 3.9 µM, an IC50 (NCI-H1975) of 41.4 ± 3.4 µM and an IC50 (NCI-H460) of 21.8 ± 1.9 µM. The IC50 (PI3Kα; ATP 25 μM) was 0.5 ± 0.11 µM, the inhibition at 10 µM (PI3Kα; [1]) was over 85% and the IC50 (MCF-7) was 7.6 ± 0.5 µM. For the same compound, the IC50 (T47D) was 12.5 ± 1.8 µM.

`COc1ncc(-c2cc(C)cn3cc(C(=O)NCCCN4CCOCC4)nc23)cc1NS(=O)(=O)c1ccc(F)cc1` [Compound 41, 8–(5-((4-Fluorophenyl)sulfonamido)-6-methoxypyridin-3-yl)-6-methyl-N-(3-morpholinopropyl)Imidazo[1,2-a]pyridine-2-carboxamide] gave an inhibition at 10 µM (PI3Kα; [1]) of 75.7 ± 2.9%.

Compound `COc1ncc(-c2cc(C)cn3cc(C(=O)N4CCOCC4)nc23)cc1NS(=O)(=O)c1ccc(F)cc1` [Compound 42, 4-Fluoro-N-(2-methoxy-5–(6-methyl-2-(morpholine-4-carbonyl)Imidazo[1,2-a]pyridin-8-yl)pyridin-3-yl)benzenesulfonamide] has an inhibition at 10 µM (PI3Kα; [1]) of 69.2 ± 6.4%.

For `COc1ncc(-c2cc(C)cn3cc(C(=O)N4CCC(C)CC4)nc23)cc1NS(=O)(=O)c1ccc(F)cc1` [Compound 43, 4-Fluoro-N-(2-methoxy-5–(6-methyl-2–(4-methylpiperidine-1-carbonyl)Imidazo[1,2-a]pyridin-8-yl)pyridin-3-yl)benzenesulfonamide], the inhibition at 10 µM (PI3Kα; [1]) was 62.8 ± 4.6%.

`COc1ncc(-c2cc(C)cn3cc(C(=O)N4CCN(C)CC4)nc23)cc1NS(=O)(=O)c1ccc(F)cc1` [Compound 44, 4-Fluoro-N-(2-methoxy-5–(6-methyl-2–(4-methylpiperazine-1-carbonyl)Imidazo[1,2-a]pyridin-8-yl)pyridin-3-yl)benzenesulfonamide] showed an inhibition at 10 µM (PI3Kα; [1]) of 53.4 ± 5.1%.

Work on `COc1ncc(-c2cc(Cl)cn3cc(C(=O)NCCCN4CCOCC4)nc23)cc1NS(=O)(=O)c1ccc(F)cc1F` [Compound 45, 6-Chloro-8–(5-((2,4-difluorophenyl)sulfonamido)-6-methoxypyridin-3-yl)-N-(3-morpholinopropyl)Imidazo[1,2-a]pyridine-2-carboxamide] yielded an inhibition at 10 µM (PI3Kα; [1]) of 59.8 ± 3.5%.

For `COc1ncc(-c2cccn3cc(C(=O)N4CCC(C)CC4)nc23)cc1NS(=O)(=O)c1ccc(F)cc1` [Compound 46, 4-Fluoro-N-(2-methoxy-5–(2-(4-methylpiperidine-1-carbonyl)Imidazo[1,2-a]pyridin-8-yl)pyridin-3-yl)benzenesulfonamide], the inhibition at 10 µM (PI3Kα; [1]) was 40.2 ± 3%.

Work on `Cc1ccc([N+](=O)[O-])cc1S(=O)(=O)N(C)/N=C/c1cnc2ccc(Br)cn12` [PIK-75, reference compound] yielded an inhibition at 10 µM (PI3Kα; read-out: % Inhibition at 10 μM, PI3Kα, compound 10 μM, ATP 25 μM) of 98.2 ± 1.6%.

In the case of “(6-Methyl-8–(3-(morpholinosulfonyl)phenyl)Imidazo[1,2-a]pyridin-2-yl)(pyrrolidin-1-yl)methanone [Compound 27]”, the “% Inhibition at 10 μM” value (PI3Kα; [2]) is reported as 60.9 ± 6.0%.

For “N,N-Diethyl-3–(6-methyl-2-(morpholine-4-carbonyl)Imidazo[1,2-a]pyridin-8-yl)benzenesulfonamide [Compound 19]”, the “% Inhibition at 10 μM” value (PI3Kα; [2]) was 58.5 ± 1.6%.

In the case of “N,N-Diethyl-3–(6-methyl-2–(4-methylpiperidine-1-carbonyl)Imidazo[1,2-a]pyridin-8-yl)benzenesulfonamide [Compound 32]”, the “% Inhibition at 10 μM” value (PI3Kα; [2]) is reported as 50.6 ± 0.9%.
